Target: cytochrome c (Fe^2+ cyt c) (Equus caballus, UniProt P00004)
Assay: equilibrium heme Soret absorbance titration with CO at […] °C
Format: binding

cytochrome c (Fe^2+ cyt c), sequence (P00004 2-105): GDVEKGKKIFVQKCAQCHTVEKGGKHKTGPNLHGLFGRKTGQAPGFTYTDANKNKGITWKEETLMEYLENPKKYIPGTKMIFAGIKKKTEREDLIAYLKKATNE

**Q.** Which Kd does the source give for `[C-]#[O+]` [CO] here?
**A.** 14 ± 8 nM
